From article PMC4823954, “From fighting depression to conquering tumors: a novel tricyclic thiazepine compound as a tubulin polymerization inhibitor” (Cell Death & Disease, 2016)

Assays:
[1] = molecular target: T1, ABL1(F317L)-phosphorylated (Homo sapiens, UniProt P00519, F317L); assay: KINOMEscan; type: binding; conditions: read-out: % Ctrl
T1 construct: purchased DiscoveRx KINOMEscan

KIT(A829P) = molecular target: T2, KIT(A829P) (Homo sapiens, UniProt P10721, A829P); assay: KINOMEscan; type: binding; conditions: read-out: % Ctrl
T2 construct: purchased DiscoveRx KINOMEscan
T2 sequence (P10721 26-976 A829P): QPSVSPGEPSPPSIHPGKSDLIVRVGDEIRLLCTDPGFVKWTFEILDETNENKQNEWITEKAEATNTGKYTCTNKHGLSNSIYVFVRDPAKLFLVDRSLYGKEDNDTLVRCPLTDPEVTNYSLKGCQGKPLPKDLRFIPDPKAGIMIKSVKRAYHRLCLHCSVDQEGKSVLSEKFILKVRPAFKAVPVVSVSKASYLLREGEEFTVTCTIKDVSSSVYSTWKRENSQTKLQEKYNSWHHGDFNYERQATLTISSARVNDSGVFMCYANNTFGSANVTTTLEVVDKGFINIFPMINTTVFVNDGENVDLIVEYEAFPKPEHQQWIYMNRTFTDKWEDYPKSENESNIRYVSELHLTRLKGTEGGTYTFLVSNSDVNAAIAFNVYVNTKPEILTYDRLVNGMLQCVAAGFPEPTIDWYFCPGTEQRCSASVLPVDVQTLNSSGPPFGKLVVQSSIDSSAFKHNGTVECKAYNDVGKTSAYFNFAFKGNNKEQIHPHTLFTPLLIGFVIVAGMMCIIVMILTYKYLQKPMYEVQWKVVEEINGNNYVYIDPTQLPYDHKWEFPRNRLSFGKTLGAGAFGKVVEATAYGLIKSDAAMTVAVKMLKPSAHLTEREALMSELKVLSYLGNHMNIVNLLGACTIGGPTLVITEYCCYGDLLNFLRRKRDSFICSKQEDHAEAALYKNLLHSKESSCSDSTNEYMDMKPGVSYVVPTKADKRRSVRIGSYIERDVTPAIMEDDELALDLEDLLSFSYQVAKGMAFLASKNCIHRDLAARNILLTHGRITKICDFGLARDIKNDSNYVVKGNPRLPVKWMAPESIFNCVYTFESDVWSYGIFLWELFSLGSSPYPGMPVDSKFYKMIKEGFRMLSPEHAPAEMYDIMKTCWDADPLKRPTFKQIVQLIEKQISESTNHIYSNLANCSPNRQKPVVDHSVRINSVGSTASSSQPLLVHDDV

KIT(V559D,V654A) = molecular target: T3, KIT(V559D,V654A) (Homo sapiens, UniProt P10721, V559D/V654A); assay: KINOMEscan; type: binding; conditions: read-out: % Ctrl
T3 construct: purchased DiscoveRx KINOMEscan
T3 sequence (P10721 26-976 V559D/V654A): as the sequence (P10721 26-976 A829P) above, with V534D, V629A, P804A counted along it

PIK3CA(E545A) = molecular target: T4, PIK3CA(E545A) (Homo sapiens, UniProt P42336, E545A); assay: KINOMEscan; type: binding; conditions: read-out: % Ctrl
T4 construct: purchased DiscoveRx KINOMEscan
T4 sequence (P42336 whole entry E545A): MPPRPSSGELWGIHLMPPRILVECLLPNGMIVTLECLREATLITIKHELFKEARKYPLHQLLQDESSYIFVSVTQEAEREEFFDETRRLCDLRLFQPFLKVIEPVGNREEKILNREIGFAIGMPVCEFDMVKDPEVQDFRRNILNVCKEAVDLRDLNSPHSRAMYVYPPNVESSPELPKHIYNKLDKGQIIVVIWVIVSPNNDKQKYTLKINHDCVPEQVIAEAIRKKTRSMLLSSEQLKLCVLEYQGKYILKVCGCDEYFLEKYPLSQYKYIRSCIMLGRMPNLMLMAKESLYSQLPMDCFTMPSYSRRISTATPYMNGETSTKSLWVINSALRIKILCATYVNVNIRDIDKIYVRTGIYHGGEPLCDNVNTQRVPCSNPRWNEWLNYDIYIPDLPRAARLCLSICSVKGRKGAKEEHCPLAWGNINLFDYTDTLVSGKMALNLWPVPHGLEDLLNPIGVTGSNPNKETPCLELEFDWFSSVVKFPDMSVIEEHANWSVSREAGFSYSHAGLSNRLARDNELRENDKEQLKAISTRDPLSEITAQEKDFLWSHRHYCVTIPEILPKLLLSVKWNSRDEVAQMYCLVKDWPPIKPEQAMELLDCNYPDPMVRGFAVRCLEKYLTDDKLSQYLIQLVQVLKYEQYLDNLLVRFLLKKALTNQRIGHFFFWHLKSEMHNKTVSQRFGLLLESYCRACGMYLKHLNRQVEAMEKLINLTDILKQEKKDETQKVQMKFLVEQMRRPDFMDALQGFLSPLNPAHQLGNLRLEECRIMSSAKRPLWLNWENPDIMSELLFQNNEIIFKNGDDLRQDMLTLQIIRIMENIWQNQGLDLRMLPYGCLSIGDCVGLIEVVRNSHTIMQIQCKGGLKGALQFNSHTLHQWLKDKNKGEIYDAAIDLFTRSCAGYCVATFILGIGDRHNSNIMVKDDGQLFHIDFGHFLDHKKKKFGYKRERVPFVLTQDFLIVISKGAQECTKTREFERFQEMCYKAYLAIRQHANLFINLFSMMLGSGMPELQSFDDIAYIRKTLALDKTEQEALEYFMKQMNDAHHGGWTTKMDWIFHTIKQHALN

PKNB(M.tuberculosis) = molecular target: T5, PKNB(M.tuberculosis) (Mycobacterium tuberculosis, UniProt P9WI81); assay: KINOMEscan; type: binding; conditions: read-out: % Ctrl
T5 construct: purchased DiscoveRx KINOMEscan
T5 sequence (P9WI81 whole entry): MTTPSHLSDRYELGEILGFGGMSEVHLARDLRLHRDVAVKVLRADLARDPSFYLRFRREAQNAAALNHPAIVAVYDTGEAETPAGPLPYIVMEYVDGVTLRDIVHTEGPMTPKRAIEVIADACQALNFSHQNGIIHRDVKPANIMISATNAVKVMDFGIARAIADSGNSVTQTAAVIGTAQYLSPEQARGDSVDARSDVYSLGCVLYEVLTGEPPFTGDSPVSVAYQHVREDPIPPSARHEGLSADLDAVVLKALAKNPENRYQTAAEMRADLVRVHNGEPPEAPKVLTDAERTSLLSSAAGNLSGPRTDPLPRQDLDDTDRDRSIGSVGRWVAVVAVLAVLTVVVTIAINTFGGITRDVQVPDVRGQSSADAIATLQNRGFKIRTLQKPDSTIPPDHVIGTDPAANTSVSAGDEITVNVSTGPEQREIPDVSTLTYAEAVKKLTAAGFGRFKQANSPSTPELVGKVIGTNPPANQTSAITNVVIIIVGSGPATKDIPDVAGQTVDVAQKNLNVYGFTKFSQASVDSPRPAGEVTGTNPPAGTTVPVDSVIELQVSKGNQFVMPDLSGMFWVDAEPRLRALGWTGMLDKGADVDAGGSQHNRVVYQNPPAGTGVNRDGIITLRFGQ

mice hippocampus cells = assay: Cell cycle and apoptosis analysis; conditions: 2 μM
Description: Cell cycle and apoptosis analyses were performed on a Guava EasyCyte Flow Cytometry System (Millipore, Billerica, MA, USA). Cells were seeded in 6-cm culture plates and treated with 2 μM TBPT or an equal volume of DMSO on the next day for the indicated times. To analyze the intracellular DNA content, cells were harvested, washed twice in PBS and fixed in 70% ethanol at −20 °C overnight. After the cells were washed in PBS, they were stained with Guava cell cycle reagent (Millipore) and analyzed via flow cytometry. For cell apoptosis analysis, the cells were harvested, washed in PBS, stained with PI/Annexin V-FITC reagent (Life Technologies) and analyzed by flow cytometry.
The cell cycle (a) and apoptosis (b) analysis of mice hippocampus cells. The new-born mice hippocampus cells were derived and cultured as previously report (F Lu et al. Cell Death and Disease, 2012). Cells were treated with DMSO or TBPT (2 μM) for the indicated times. After the cells were stained, they were analyzed for cell cycle and apoptosis using flow cytometry.

T1 sequence (P00519 whole entry F317L): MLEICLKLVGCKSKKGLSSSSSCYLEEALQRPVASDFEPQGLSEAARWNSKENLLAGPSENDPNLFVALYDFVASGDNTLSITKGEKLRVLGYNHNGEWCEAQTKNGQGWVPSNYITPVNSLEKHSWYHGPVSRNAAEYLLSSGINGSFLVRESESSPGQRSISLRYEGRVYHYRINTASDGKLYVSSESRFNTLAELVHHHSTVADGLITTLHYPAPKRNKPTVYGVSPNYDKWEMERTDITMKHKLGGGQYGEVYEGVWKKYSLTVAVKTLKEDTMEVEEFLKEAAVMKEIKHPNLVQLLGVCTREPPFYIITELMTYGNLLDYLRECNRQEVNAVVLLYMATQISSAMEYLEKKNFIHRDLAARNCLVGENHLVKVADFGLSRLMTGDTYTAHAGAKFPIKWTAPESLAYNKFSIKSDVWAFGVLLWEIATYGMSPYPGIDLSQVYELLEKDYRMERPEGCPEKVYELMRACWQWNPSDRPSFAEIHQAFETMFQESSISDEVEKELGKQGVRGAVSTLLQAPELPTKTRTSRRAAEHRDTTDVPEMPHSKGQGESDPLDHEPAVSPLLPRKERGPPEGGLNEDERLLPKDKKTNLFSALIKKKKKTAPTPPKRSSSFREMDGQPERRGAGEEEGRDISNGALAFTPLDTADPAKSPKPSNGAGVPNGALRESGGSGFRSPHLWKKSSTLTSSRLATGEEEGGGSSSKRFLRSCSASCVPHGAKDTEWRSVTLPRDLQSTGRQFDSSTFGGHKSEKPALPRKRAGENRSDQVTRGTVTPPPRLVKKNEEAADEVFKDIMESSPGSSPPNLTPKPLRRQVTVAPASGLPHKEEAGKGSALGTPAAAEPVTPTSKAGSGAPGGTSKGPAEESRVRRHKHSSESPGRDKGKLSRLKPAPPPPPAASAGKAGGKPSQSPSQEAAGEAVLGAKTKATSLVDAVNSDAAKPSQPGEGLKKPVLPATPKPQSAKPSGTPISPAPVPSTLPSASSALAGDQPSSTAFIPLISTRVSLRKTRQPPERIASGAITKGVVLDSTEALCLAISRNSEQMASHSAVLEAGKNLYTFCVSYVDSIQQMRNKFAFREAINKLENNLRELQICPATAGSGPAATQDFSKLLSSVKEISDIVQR

Question: What does the source list for Cc1ccc(C2=Nc3cccnc3S(=O)(=O)c3ccccc32)cc1 [TBPT, 6-(p-tolyl)benzo[f] pyrido[2,3-b][1,4] thiazepine 11,11-dioxide]?
Answer: remaining binding at 5 µM ([1]; 5 μM): 72%; remaining binding at 10 µM ([1]; 10 μM): 98%; remaining binding at 5 µM (KIT(A829P); 5 μM): 95%; remaining binding at 10 µM (KIT(A829P); 10 μM): 96%; remaining binding at 5 µM (KIT(V559D,V654A); 5 μM): 97%; remaining binding at 10 µM (KIT(V559D,V654A); 10 μM): 90%; remaining binding at 5 µM (PIK3CA(E545A); 5 μM): 100%; remaining binding at 10 µM (PIK3CA(E545A); 10 μM): 100%; remaining binding at 5 µM (PKNB(M.tuberculosis); 5 μM): 100%; remaining binding at 10 µM (PKNB(M.tuberculosis); 10 μM): 85%; cell cycle arrest or apoptosis (mice hippocampus cells): very little cell cycle arrest or apoptosis
